Experimental data: publication PMC3171632 (2011)

What was measured:
[1] = biological target: T1, LuxS (S-ribosylhomocysteinase) (Bacillus subtilis, UniProt O34667); assay: LuxS activity assay with SRH and DTNB at […] nm; assay type: biochemical
T1 sequence (O34667 1-157): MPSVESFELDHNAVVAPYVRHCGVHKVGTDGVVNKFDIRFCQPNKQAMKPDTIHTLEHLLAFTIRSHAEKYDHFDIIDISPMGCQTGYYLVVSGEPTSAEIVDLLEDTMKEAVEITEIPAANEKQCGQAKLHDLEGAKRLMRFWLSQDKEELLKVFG

[2] = biological target: T1, LuxS (S-ribosylhomocysteinase); assay: LuxS activity assay with SRH and DTNB at […] nm, […] min preincubation; assay type: biochemical

Ki [1]	Ki [2]	Compound
37 µM	–	N[C@@H](CCSC[C@H]1NC(=O)[C@H](O)[C@@H]1O)C(=O)O [compound 21, S-(4-Amino-4,5-dideoxy-D-ribono-1,4-lactam-5-yl)-L-homocysteine]
–	3.5 µM	N[C@@H](CCSC[C@H]1NC(O)[C@H](O)[C@@H]1O)C(=O)O (mixture of isomers) [compound 23, S-(4-Amino-4,5-dideoxy-α/β-D-ribofuranos-5-yl)-L-homocysteine]
48 µM	–	N[C@@H](CCSC[C@H]1NC[C@H](O)[C@@H]1O)C(=O)O [compound 12, S-(1-Amino-1,4-anhydro-1,5-dideoxy-D-ribitol-5-yl)-L-homocysteine]
